Experimental data published in patent US20260053767A1, “Hepatoprotective Compositions And Methods” (Jemyll, Ltd., priority 2022, published 2026).

System: rat primary HSCs
Assay: HSCs apoptosis by flow cytometry using propidium iodide staining
Format: cell-based
Conditions: 1% (w/vol)
Method: A 10% (w/v) FFA-free BSA (Sigma) solution was prepared in ddH2O and maintained at 55° C. in a water bath. 10 mM FFA/1% BSA solution was obtained by complexing the appropriate amount of palmitate stock solution to 10% BSA at 55° C. for another 30 min. The above solution was then cooled to 25° C., filter sterilized and stored at −20° C. until use. Primary hepatocytes were grown in DMEM supplemented with palmitate (0.4 mM). After 24 h. CM was clarified by centrifugation at 6000 g to remove cell debris, sterile filtered with a 0.45 μm pore size membrane filter and stored in aliquots at −20° C. until use.
Hepatic Stellate cells: Primary hepatic stellate cells were isolated from Wistar rats as described previously (7). […] HSCs activation was assessed by flow cytometry by evaluating alpha-smooth muscle Actin (α-SMA) and Collagen type I alpha 1 (COLIA1) protein expression. α-SMA and COLIA1 antibodies were obtained from Thermo Fisher scientific (Waltham, MA). Flow cytometric analysis was conducted with CytoFlex (Beckman Coulter, Brea, CA) and data analyzed with Kaluza software (Beckman Coulter, Brea, CA). […]
Subsequently, protein expression of two established markers of HSCs activation, namely collagen type 1 (COLA1A) and alpha-smooth muscle actin (αSMA), was determined by flow cytometry analysis. […] Next, the inventors analyzed the effect of DODA on HSCs apoptosis. […]

## O=C(O)CCCCCCCCCCC(=O)O [DDDA, dodecanedioic acid]
CM from palmitate-treated hepatocytes, propidium iodide staining
  HSCs apoptosis: induces HSCs apoptosis
Rat primary HSCs, CM from steatotic hepatocytes, without compound 8.39%
  cell death (propidium iodide staining, flow cytometry): 16.16%
